Results: patent US10023593B2, “ALK kinase inhibitor, and preparation method and uses thereof” (BEIJING PEARL BIOTECHNOLOGY LIMITED LIABILITY COMPANY, priority 2014, dated 2018)

System: NCI-H2228 cell line
Assay: CellTiter-Glo cell proliferation inhibition on NCI-H2228 cell line
Type: cell-based
Conditions: Homo sapiens, NCI-H2228, 96 h, NCI-H2228 cells, 5000 cells/well, 4 days drug treatment
Description: 3. Cell Proliferation Inhibitory Activities of the Compounds of the Present Invention on NCI-H2228 Cell Line
? experimental method ? CellTiter-Glo® Luminescent Cell Viability Assay kit from Promega company was used to detect cell proliferation inhibitory activities of the compounds on NCI-H2228 cell line.
? instrument ? Envision 2104 plate reader from PerKinElmer company; Vi-Cell XR cell counter from Beckman Counter company; MCO-18AIC CO2 incubator from SANYO company.
? experiment material ? CellTiter-Glo® Luminescent Cell Viability Assay Kit (Promega company, catalog No. G7573); NCI-H2228 cell line (ATCC, catalog No. CRL-5935); RPMI-1640 medium (HyClone company, catalog No. SH30809.01B); fetal bovine serum (FBS) (Gibco company, catalog No. 10099-141); trypsin (Trypsin) (Gibco company, catalog No. 25200-072); PBS (HyClone company, catalog No. SH30256.01B); 96 wells cell culture plate (Corning company, catalog No. 3610); DMSO (AMRESCO company, catalog No. 0231); 96 wells plates (for diluting compounds) (CITOTEST company, catalog No. Ref36020096D);
? experimental condition ? NCI-H2228 cells in exponential growth phase were collected and treated with trypsin (Trypsin), and viable cells were counted by Vi-Cell XR cell counter. Cell suspension was adjusted to 62500 cells/ml with culture medium (RPMI-1640+10% FBS). 80 μl cell suspension was added into each well of 96 wells cell culture plate so that the final cell number of NCI-H2228 cells was 5000 cells/well. The cells were cultivated in an incubator with an atmosphere of 37° C., 5% CO2 and 95% humidity for 2 hours and then each well was added with 20 μl compounds in RPMI-1640 medium solution (the final concentration of DMSO was 0.5%). 4 days after drug treatment, each well was added with 50 μl CellTiter-Glo solution which was previously thawed and equilibrated to room temperature, and mixed for 2 minutes with microplate shaker. After placing at room temperature for 10 minutes, luminescence value was measured by PerkinElmer Envision 2104 plate reader and the data was analyzed.
? tested samples ? Compounds of the examples.
? data analysis ? Luminescence value of DMSO solvent control (Vvehicle control, which is the mean luminescence value from DMSO solvent control group)
Tested luminescence value (Vsample, which is the luminescence value from given concentration of compounds group) Inhibition rate (%)=(1−Vsample/Vvehicle control)×100
? data processing ? IC50 of compounds was calculated by using XLfit program in Excel.

| SMILES | IC50 |
| --- | --- |
| Cc1cc(Nc2ncc(Cl)c(Nc3cn(C)nc3S(=O)(=O)CC(C)C)n2)c(OC2CC2)cc1C1CCCN(C)C1 (stereo not drawn) [Final product 61] | 85 nM |
| Cc1cc(Nc2ncc(Cl)c(Nc3cn(C)nc3S(=O)(=O)C(C)C)n2)c(OC2CC2)cc1C1CC2COCC(C1)N2C (stereo not drawn) [Final product 74] | 19 nM |
| Cc1cc(Nc2ncc(Cl)c(Nc3cn(C)nc3S(=O)(=O)C(C)C)n2)c(OC2CC2)cc1CN1CCN(C)CC1 [Final product 75] | 109 nM |
| Cc1cc(Nc2ncc(Cl)c(Nc3cn(C)nc3S(=O)(=O)C(C)C)n2)c(OC2CC2)cc1OC1CN(C)C1 [Final product 76] | 215 nM |
| Cc1cc(Nc2ncc(Cl)c(Nc3cn(C)nc3S(=O)(=O)C(C)C)n2)c(OC2CC2)cc1C1CCN(C)CC1Cl (stereo not drawn) [Final product 89] | 108 nM |
| Cc1cc(Nc2ncc(Cl)c(Nc3cn(C)nc3S(=O)(=O)CC(C)C)n2)c(OC2CC2)cc1C1CCN(C)CC1C (stereo not drawn) [Final product 91] | 75 nM |
| Cc1cc(Nc2ncc(Cl)c(Nc3cn(C)nc3S(=O)(=O)CC(C)C)n2)c(OC2CC2)cc1C1CCN(C)C(C)C1 (stereo not drawn) [Final product 93] | 67 nM |
| Cc1cc(Nc2ncc(Cl)c(Nc3cn(C)nc3S(=O)(=O)CC(C)C)n2)c(OC2CC2)cc1C1CC(C)N(C)C(C)C1 (stereo not drawn) [Final product 96] | 85 nM |
| Cc1cc(Nc2ncc(Cl)c(Nc3cn(C)nc3S(=O)(=O)C(C)C)n2)c(OC(C)C)cc1C1CC(C)(C)N(C)C(C)(C)C1 [Final product 98] | 240 nM |
| Cc1cc(Nc2ncc(Cl)c(Nc3cn(C)nc3S(=O)(=O)C(C)C)n2)c(OC2CC2)cc1C1CCN(C)C(C(=O)N(C)C)C1 (stereo not drawn) [Final product 101] | 26 nM |
| Cc1cc(Nc2ncc(Cl)c(Nc3cn(C)nc3S(=O)(=O)C(C)C)n2)c(OC2CC2)cc1C1CCCCN1C (stereo not drawn) [Final product 102] | 103 nM |
| Cc1cc(Nc2ncc(Cl)c(Nc3cn(C)nc3S(=O)(=O)CC(C)C)n2)c(OC2CC2)cc1C1CCN(C)C(=O)C1 (stereo not drawn) [Final product 104] | 70 nM |
| Cc1cc(Nc2ncc(Cl)c(Nc3cn(C)nc3S(=O)(=O)C(C)C)n2)c(OC2CC2)cc1C1CCN2CCCC2C1 (stereo not drawn) [Final product 105] | 63 nM |
| Cc1cc(Nc2ncc(Cl)c(Nc3cn(C)nc3S(=O)(=O)C(C)C)n2)c(OC2CC2)cc1C1CC2COCC(C1)N2 (stereo not drawn) [Final product 108] | 33 nM |
| Cc1cc(Nc2ncc(Cl)c(Nc3cn(C)nc3S(=O)(=O)C(C)C)n2)c(OC2CC2)cc1C1CC2CN(C)CC(C1)O2 (stereo not drawn) [Final product 109] | 109 nM |
| Cc1cc(Nc2ncc(Cl)c(Nc3cn(C)nc3S(=O)(=O)C(C)C)n2)c(OC2CC2)cc1C1CCS(=O)(=O)CC1 [Final product 110] | 97 nM |
| CC(C)S(=O)(=O)c1nn(C)cc1Nc1nc(Nc2cc3c(cc2OC2CC2)CN(C)CC3)ncc1Cl [Final product 112] | 211 nM |
| CCN1CCC(c2cc(OC3CC3)c(Nc3ncc(Cl)c(Nc4cn(C)nc4S(=O)(=O)CC(C)C)n3)cc2C)CC1 [Final product 117] | 158 nM |
| CCN1CCCC(c2cc(OC3CC3)c(Nc3ncc(Cl)c(Nc4cn(C)nc4S(=O)(=O)C(C)C)n3)cc2C)C1 (stereo not drawn) [Final product 120] | 93 nM |
| CCN1CCCC(c2cc(OC3CC3)c(Nc3ncc(Cl)c(Nc4cn(C)nc4S(=O)(=O)CC(C)C)n3)cc2C)C1 (stereo not drawn) [Final product 121] | 168 nM |
| Cc1cc(Nc2ncc(Cl)c(Nc3cn(C)nc3S(=O)(=O)CC(C)C)n2)c(OC2CC2)cc1C1CCCN(C(C)C)C1 (stereo not drawn) [Final product 130] | 28 nM |

Second part, the molecule after the results:

| IC50 | SMILES |
| --- | --- |
| 122 nM | Cc1cc(Nc2ncc(Cl)c(Nc3cn(C)nc3S(=O)(=O)C(C)C)n2)c(OC(C)C)cc1C1CCCN(C)C1 (stereo not drawn) [Final product 62] |
| 31 nM | Cc1cc(Nc2ncc(Cl)c(Nc3cn(C)nc3S(=O)(=O)C(C)C)n2)c(OC2CCC2)cc1C1CCN(C)CC1 [Final product 63] |
| 31 nM | COc1cc(C2CCN(C)CC2)c(C)cc1Nc1ncc(Cl)c(Nc2cn(C)nc2S(=O)(=O)C(C)C)n1 [Final product 64] |
| 38 nM | CCOc1cc(C2CCN(C)CC2)c(C)cc1Nc1ncc(Cl)c(Nc2cn(C)nc2S(=O)(=O)C(C)C)n1 [Final product 65] |
| 59 nM | CCCOc1cc(C2CCN(C)CC2)c(C)cc1Nc1ncc(Cl)c(Nc2cn(C)nc2S(=O)(=O)C(C)C)n1 [Final product 66] |
| 150 nM | CC(C)Oc1cc(C2CCN(C)CC2)c(C2CC2)cc1Nc1ncc(Cl)c(Nc2cn(C)nc2S(=O)(=O)C(C)C)n1 [Final product 68] |
| 178 nM | CCCc1cc(Nc2ncc(Cl)c(Nc3cn(C)nc3S(=O)(=O)C(C)C)n2)c(OC(C)C)cc1C1CCN(C)CC1 [Final product 69] |
| 199 nM | Cc1cc(Nc2ncc(F)c(Nc3cn(C)nc3S(=O)(=O)C(C)C)n2)c(OC(C)C)cc1C1CCN(C)CC1 [Final product 71] |
| 151 nM | Cc1cc(Nc2ncc(C)c(Nc3cn(C)nc3S(=O)(=O)C(C)C)n2)c(OC(C)C)cc1C1CCN(C)CC1 [Final product 73] |
| 128 nM | COCC1CC(c2cc(OC(C)C)c(Nc3ncc(Cl)c(Nc4cn(C)nc4S(=O)(=O)C(C)C)n3)cc2C)CCN1C (stereo not drawn) [Final product 78] |
| 46 nM | COCC(C)(C)N1CCC(c2cc(OC3CC3)c(Nc3ncc(Cl)c(Nc4cn(C)nc4S(=O)(=O)C(C)C)n3)cc2C)CC1 [Final product 84] |
| 77 nM | COCC(C)(C)N1CCC(c2cc(OC(C)C)c(Nc3ncc(Cl)c(Nc4cn(C)nc4S(=O)(=O)C(C)C)n3)cc2C)CC1 [Final product 85] |
| 120 nM | Cc1cc(Nc2ncc(Cl)c(Nc3cn(C)nc3S(=O)(=O)C3CCC3)n2)c(OC(C)C)cc1C1CCN(C)CC1 [Final product 86] |
| 79 nM | Cc1cc(Nc2ncc(Cl)c(Nc3cn(C)nc3S(=O)(=O)C(C)C)n2)c(OC(C)C)cc1C1CCN(C)C(C)C1 (stereo not drawn) [Final product 94] |
| 58 nM | Cc1cc(Nc2ncc(Cl)c(Nc3cn(C)nc3S(=O)(=O)C(C)C)n2)c(OC2CC2)cc1C1CCN(C)CC1(C)C (stereo not drawn) [Final product 99] |
| 34 nM | Cc1cc(Nc2ncc(Cl)c(Nc3cn(C)nc3S(=O)(=O)C(C)C)n2)c(OC2CC2)cc1C1CCCN(C)CC1 (stereo not drawn) [Final product 106] |
| 34 nM | CCOc1cc(C2CCN(CC)CC2)c(C)cc1Nc1ncc(Cl)c(Nc2cn(C)nc2S(=O)(=O)C(C)C)n1 [Final product 116] |
| 193 nM | CCN1CCCC(c2cc(OC(C)C)c(Nc3ncc(Cl)c(Nc4cn(C)nc4S(=O)(=O)C(C)C)n3)cc2C)C1 (stereo not drawn) [Final product 119] |
| 79 nM | CCN1CCC(c2cc(OC3CCC3)c(Nc3ncc(Cl)c(Nc4cn(C)nc4S(=O)(=O)C(C)C)n3)cc2C)CC1 [Final product 122] |
| 86 nM | COc1cc(C2CCN(C(C)C)CC2)c(C)cc1Nc1ncc(Cl)c(Nc2cn(C)nc2S(=O)(=O)C(C)C)n1 [Final product 124] |
| 47 nM | CCOc1cc(C2CCN(C(C)C)CC2)c(C)cc1Nc1ncc(Cl)c(Nc2cn(C)nc2S(=O)(=O)C(C)C)n1 [Final product 125] |
| 128 nM | Cc1cc(Nc2ncc(Cl)c(Nc3cn(C)nc3S(=O)(=O)C(C)C)n2)c(OC(C)C)cc1C1CCCN(C(C)C)C1 (stereo not drawn) [Final product 128] |
| 32 nM | Cc1cc(Nc2ncc(Cl)c(Nc3cn(C)nc3S(=O)(=O)C(C)C)n2)c(OC2CC2)cc1C1CCCN(C(C)C)C1 (stereo not drawn) [Final product 129] |
| 52 nM | Cc1cc(Nc2ncc(Cl)c(Nc3cn(C)nc3S(=O)(=O)C(C)C)n2)c(OC2CCC2)cc1C1CCN(C(C)C)CC1 [Final product 131] |
